Results: ChEMBL document CHEMBL5046290, “Design, Synthesis, and Preclinical Profiling of GSK3739936 (BMS-986180), an Allosteric Inhibitor of HIV-1 Integrase with Broad-Spectrum Activity toward 124/125 Polymorphs” (J Med Chem, 2022)

How the values were obtained:
Cytochrome P450 3A4 = Cytochrome P450 3A4 (Homo sapiens, UniProt P08684); assay: Inhibition of human CYP3A4; format: ADME
[1] = biological target: Voltage-gated inwardly rectifying potassium channel KCNH2 (Homo sapiens, UniProt Q12809); assay: Inhibition of hERG; format: toxicity
[2] = Elimination half life in Beagle dog at 1 mg/kg, iv by LC-MS/MS analysis; format: ADME, organism-based, Canis lupus familiaris; details: in vivo, read-out: beta t1/2 (converted)
[3] = Volume of distribution at steady state in Cynomolgus monkey at 1 mg/kg, iv by LC-MS/MS analysis; format: ADME, organism-based, Macaca fascicularis; details: in vivo, read-out: Vdss
[4] = Toxicity in rat assessed as vacuolation of kidney at 500 mg/kg/day; format: organism-based; details: in vivo
[5] = test system: Human immunodeficiency virus 1; assay: Antiviral activity against recombinant HIV1 NLRep-Rluc harbouring polymorphic NT infected in human MT-2 cells assessed as inhibition of virus growth in presence of fetal bovine serum by measuring luciferase activity after 5 days; format: functional, organism-based; details: Human immunodeficiency virus 1, NLRep, MT2, 120 h
[6] = Toxicity in rat assessed as lipidosis at 500 mg/kg/day; format: organism-based; details: in vivo
[7] = Cardiotoxicity in dog heart assessed as change in electrocardiographic parameter upto 128 uM of plasma concentration; format: toxicity, Canis lupus familiaris
[8] = AUC in Beagle dog at 2 mg/kg, po by LC-MS/MS analysis; format: ADME, organism-based, Canis lupus familiaris; parameters: dose 2 mg/kg; details: in vivo
[9] = Solubility of the compound using amorphous form of sample; format: physicochemical
[10] = Volume of distribution at steady state in CD-1 mouse at 1 mg/kg, iv by LC-MS/MS analysis; format: ADME, organism-based; details: in vivo, read-out: Vdss
[11] = Toxicity in rat assessed as histological changes in adrenal gland at 500 mg/kg/day; format: organism-based; details: in vivo
[12] = Tmax in cynomolgus monkey at 2 mg/kg, po by LC-MS/MS analysis; format: ADME, organism-based, Macaca fascicularis; details: in vivo
[13] = Clearance in Sprague-Dawley rat at 1 mg/kg, iv by LC-MS/MS analysis; format: ADME, organism-based; details: in vivo
Cytochrome P450 2C8 = biological target: T1, Cytochrome P450 2C8 (Homo sapiens, UniProt P10632); assay: Inhibition of human CYP2C8; format: ADME
T1 sequence (P10632 whole entry): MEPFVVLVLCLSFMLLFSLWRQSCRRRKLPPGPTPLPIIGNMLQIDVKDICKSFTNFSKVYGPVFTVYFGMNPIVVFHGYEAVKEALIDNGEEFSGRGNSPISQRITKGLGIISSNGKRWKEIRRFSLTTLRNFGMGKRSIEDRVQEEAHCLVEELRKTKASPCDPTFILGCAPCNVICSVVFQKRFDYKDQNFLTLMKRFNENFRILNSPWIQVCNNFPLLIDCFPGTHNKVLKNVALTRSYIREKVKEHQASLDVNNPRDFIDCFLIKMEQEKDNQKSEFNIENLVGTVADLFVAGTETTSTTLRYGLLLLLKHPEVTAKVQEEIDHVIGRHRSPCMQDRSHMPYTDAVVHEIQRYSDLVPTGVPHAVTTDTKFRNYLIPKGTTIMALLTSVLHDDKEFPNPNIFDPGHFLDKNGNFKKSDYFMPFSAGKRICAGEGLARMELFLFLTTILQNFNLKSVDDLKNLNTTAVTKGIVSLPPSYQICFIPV

[14] = Toxicity in rat assessed as distended stomach at 500 mg/kg/day; format: organism-based; details: in vivo
Salmonella typhimurium = assay: Mutagenicity in Salmonella Typhimurium using Aroclor 1254 induced rat liver S9 fraction by […] assay; format: toxicity, organism-based; details: salmonella enterica subsp. enterica serovar typhimurium
CYP = CYP (Homo sapiens, UniProt P04798+P05177+P05181+P08684+P10632+P10635+P11509+P11712+P13584+P20813+P20815+P20853+P24462+P24903+P33260+P33261+P51589+P78329+P98187+Q02928+Q08477+Q16678+Q16696+Q5TCH4+Q6VVX0+Q7Z449+Q8TAV3+Q96SQ9+Q9HB55); assay: Half life in human assessed as CYP mediated metabolism in presence of […] by phase I metabolic oxidation assay; format: ADME, protein assay
Cytochrome P450 1A2 = biological target: T2, Cytochrome P450 1A2 (Homo sapiens, UniProt P05177); assay: Inhibition of human CYP1A2; format: ADME
T2 sequence (P05177 whole entry): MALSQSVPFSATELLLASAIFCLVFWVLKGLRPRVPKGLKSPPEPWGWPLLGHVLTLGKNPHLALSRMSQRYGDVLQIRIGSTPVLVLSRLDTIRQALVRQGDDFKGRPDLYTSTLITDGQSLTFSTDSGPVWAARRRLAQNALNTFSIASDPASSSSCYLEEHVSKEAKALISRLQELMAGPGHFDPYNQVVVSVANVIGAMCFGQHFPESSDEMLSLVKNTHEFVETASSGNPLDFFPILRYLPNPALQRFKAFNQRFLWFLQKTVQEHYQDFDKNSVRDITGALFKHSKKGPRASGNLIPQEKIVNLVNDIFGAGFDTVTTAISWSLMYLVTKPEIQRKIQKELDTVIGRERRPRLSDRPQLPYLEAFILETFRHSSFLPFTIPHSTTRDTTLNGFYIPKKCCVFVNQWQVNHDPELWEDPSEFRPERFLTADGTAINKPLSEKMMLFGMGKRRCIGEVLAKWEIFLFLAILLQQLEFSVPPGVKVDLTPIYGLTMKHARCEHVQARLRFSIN

[15] = Plasma protein binding in rat; format: ADME, cell-free; details: read-out: PPB (converted)
[16] = Clearance in CD-1 mouse at 1 mg/kg, iv by LC-MS/MS analysis; format: ADME, organism-based; details: in vivo
[17] = Cmax in cynomolgus monkey at 2 mg/kg, po by LC-MS/MS analysis; format: ADME, organism-based, Macaca fascicularis; parameters: route oral, dose 2 mg/kg; details: in vivo
[18] = Stability in pH 1 for 2 days at 50 degC; format: physicochemical; details: buffer, pH 1, 48 h; time 2 day
[19] = Tmax in Beagle dog at 2 mg/kg, po by LC-MS/MS analysis; format: ADME, organism-based, Canis lupus familiaris; details: in vivo
UGT = assay: Metabolic stability assessed as dog UGT-mediated metabolism by measuring half life by phase II UGT conjugation assay; format: ADME, Canis lupus familiaris
[20] = test system: Human immunodeficiency virus 1; assay: Antiviral activity against recombinant HIV1 NLRep-Rluc harbouring polymorphic TA infected in human MT-2 cells assessed as inhibition of virus growth in presence of fetal bovine serum by measuring luciferase activity after 5 days; format: functional, organism-based; details: Human immunodeficiency virus 1, NLRep, MT2, 120 h
[21] = Oral bioavailability in Sprague-Dawley rat at 5 mg/kg by LC-MS/MS analysis; format: ADME, organism-based; details: in vivo
[22] = Metabolic stability in human liver microsome assessed half life at 0.5 uM by LC-MS/MS analysis; format: ADME; details: liver microsomes
[23] = Displacement of [3H](S)-2-(tert-butoxy)-2-(2-methyl-4-(p-tolyl)quinolin-3-yl)acetic acid from LEDGF-binding site of recombinant T124/T125 polymorphic HIV1 integrase by LIDIA assay; parameters: species or system Human immunodeficiency virus 1
[24] = AUC in CD-1 mouse at 5 mg/kg, po by LC-MS/MS analysis; format: ADME, organism-based; parameters: dose 5 mg/kg; details: in vivo
[25] = Toxicity in rat assessed as change in parathyroid gland at 500 mg/kg/day; format: organism-based; details: in vivo
[26] = Oral bioavailability in CD-1 mouse at 5 mg/kg by LC-MS/MS analysis; format: ADME, organism-based; details: in vivo
sodium channel = assay: Inhibition of sodium channel (unknown origin) at 10 uM; format: toxicity; details: human

Sequence of Cytochrome P450 3A4 (P08684 whole entry): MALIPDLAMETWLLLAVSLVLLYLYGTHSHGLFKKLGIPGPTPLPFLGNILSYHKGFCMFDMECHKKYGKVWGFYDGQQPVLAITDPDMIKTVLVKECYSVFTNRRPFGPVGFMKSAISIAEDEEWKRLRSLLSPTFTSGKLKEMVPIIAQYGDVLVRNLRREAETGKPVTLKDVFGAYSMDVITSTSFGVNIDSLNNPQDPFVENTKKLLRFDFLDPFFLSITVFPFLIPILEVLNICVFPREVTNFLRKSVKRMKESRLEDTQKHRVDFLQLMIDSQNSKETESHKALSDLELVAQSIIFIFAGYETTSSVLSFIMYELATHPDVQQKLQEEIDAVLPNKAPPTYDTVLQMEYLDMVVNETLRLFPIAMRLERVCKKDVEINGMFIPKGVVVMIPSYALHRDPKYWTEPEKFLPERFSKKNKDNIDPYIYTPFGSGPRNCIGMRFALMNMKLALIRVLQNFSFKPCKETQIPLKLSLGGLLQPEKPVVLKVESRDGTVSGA
Sequence of Voltage-gated inwardly rectifying potassium channel KCNH2 (Q12809 whole entry): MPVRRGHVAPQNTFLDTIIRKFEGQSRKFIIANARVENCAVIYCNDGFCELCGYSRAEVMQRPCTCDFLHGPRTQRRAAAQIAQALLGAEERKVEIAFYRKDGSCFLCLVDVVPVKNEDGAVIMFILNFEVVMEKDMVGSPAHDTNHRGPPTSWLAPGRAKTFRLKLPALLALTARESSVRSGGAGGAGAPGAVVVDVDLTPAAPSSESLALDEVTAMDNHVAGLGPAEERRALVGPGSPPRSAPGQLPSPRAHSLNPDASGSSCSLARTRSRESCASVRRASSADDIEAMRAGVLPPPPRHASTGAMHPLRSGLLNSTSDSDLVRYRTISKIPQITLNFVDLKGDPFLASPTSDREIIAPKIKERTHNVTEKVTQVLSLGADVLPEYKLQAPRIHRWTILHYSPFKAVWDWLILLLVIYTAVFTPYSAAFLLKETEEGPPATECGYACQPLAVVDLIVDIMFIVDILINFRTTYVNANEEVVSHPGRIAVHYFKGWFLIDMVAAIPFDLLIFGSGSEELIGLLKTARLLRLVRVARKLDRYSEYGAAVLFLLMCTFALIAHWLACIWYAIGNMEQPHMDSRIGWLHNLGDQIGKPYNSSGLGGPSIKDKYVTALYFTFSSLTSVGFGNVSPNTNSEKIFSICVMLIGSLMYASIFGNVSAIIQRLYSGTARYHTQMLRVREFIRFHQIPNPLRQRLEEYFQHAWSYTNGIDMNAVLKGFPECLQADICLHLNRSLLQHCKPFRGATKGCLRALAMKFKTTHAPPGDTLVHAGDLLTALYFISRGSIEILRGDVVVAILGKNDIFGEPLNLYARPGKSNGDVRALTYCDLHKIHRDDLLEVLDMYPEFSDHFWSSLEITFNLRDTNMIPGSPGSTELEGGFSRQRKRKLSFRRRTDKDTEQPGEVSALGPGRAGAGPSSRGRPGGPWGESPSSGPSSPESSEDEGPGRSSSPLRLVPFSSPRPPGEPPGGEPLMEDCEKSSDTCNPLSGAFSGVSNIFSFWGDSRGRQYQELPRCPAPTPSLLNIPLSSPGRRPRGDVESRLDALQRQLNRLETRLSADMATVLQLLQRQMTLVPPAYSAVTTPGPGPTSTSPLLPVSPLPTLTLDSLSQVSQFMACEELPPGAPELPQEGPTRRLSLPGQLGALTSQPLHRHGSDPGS

In the case of `Cc1nc(C)c([C@H](OC(C)(C)C)C(=O)O)c(N2CCC(C)(C)CC2)c1-c1ccc(OCCc2ccc(F)cc2)cc1`, the IC50 (Cytochrome P450 3A4) is reported as ≥ 24300 nM, the IC50 [1] is reported as 670 nM and the half-life [2] is reported as 5.1 h. For the same compound, the Vd [3] was 1.5 L/kg, the Activity [4] was “Toxic” and the EC50 [5] was 3.5 nM. The Activity [6] was “Toxic”, the Activity [7] was “Non-Toxic” and the AUC [8] was 18.5 µM·h. For the same compound, the solubility [9] was < 1 µg/mL, the Vd [10] was 2.4 L/kg and the Activity [11] was “Toxic”. The Tmax [12] was 2 h, the clearance [13] was 5.5 mL/min/kg and the IC50 (Cytochrome P450 2C8) was ≥ 24300 nM. For the same compound, the Activity [14] was “Toxic”, the Activity (Salmonella typhimurium) was “Non-Toxic” and the half-life (CYP) was 1.42 h. The IC50 (Cytochrome P450 1A2) was ≥ 24300 nM, the fraction unbound [15] was 0.19 and the clearance [16] was 5.4 mL/min/kg. The Cmax [17] was 525 nM, the Stability [18] was “Unstable” and the Tmax [19] was 2 h. The half-life (UGT) was ≥ 2 h, the EC50 [20] was 2.8 nM and the bioavailability [21] was 52%. It also gave a half-life at 0.5 µM [22] of 1.42 h, an IC50 [23] of 11.1 nM and an AUC [24] of 24.5 µM·h. For the same compound, the Activity [25] was “Toxic”, the bioavailability [26] was 89% and the inhibition at 10 µM (sodium channel) was 79%.
